Results from publication PMC7827406, “Structure–Activity Relationship (SAR) Study of Spautin-1 to Entail the Discovery of Novel NEK4 Inhibitors” (International Journal of Molecular Sciences, 2021).
Where two headings read alike, the source gives them in different places.

Tests used:
Experiment in all cases: biochemical
Set-up in all cases: Eurofins KinaseProfiler full panel at Km ATP, residual kinase activity (%) relative to DMSO
PRK2(h) = target: T1, PRK2(h) (Homo sapiens, UniProt Q16513)
T1 construct: gene PKN2
Outline: (§1)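 Compounds screened at 10 µM in radiometric kinase activity assays at Km ATP, reported as remaining kinase activity (%). A KINOMEscan competition-binding screen at 10 µM measured DNA-tagged kinase retained on immobilized active-site ligand by qPCR.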

CaMKIIγ(h) = target: T2, CaMKIIγ(h) (Homo sapiens, UniProt Q13555)
T2 construct: gene CAMK2G
Outline: as §1

STK32C(h) = STK32C(h) (Homo sapiens, UniProt Q86UX6)
Outline: as §1

PDGFRα(h) = target: T3, PDGFRα(h) (Homo sapiens, UniProt P16234)
T3 construct: gene PDGFRA
Outline: as §1

PKG1α(h) = target: T4, PKG1α(h) (Homo sapiens, UniProt Q13976)
T4 construct: gene PRKG1; isoform 1alpha
T4 sequence (Q13976 1-671): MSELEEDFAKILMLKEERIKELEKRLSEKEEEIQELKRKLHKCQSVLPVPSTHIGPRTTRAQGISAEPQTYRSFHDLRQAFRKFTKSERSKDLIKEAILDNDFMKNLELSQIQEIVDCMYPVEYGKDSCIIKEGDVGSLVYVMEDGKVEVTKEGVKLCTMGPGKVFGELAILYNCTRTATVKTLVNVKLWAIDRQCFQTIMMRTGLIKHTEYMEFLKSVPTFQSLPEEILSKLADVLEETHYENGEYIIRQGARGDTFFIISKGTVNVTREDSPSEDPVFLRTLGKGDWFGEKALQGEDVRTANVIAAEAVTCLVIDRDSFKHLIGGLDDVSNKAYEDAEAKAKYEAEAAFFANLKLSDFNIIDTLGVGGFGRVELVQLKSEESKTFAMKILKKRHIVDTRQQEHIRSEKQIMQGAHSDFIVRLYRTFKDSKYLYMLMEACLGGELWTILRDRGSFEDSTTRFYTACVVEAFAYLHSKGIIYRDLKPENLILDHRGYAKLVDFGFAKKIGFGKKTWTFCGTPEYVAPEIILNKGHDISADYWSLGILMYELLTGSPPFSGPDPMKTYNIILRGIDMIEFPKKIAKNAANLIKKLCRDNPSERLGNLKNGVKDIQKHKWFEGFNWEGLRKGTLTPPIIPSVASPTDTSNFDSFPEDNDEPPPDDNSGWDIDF
Outline: as §1

PKBβ(h) = target: T5, PKBβ(h) (Homo sapiens, UniProt P31751)
T5 construct: gene AKT2
Outline: as §1

[1] = read-out: Residual activity (%) 5at
[2] = read-out: Residual activity (%) 5as
[3] = read-out: Residual activity (%) 5ay
[4] = read-out: Residual activity (%) Spautin-1 5aa

T2 sequence (Q13555 whole entry): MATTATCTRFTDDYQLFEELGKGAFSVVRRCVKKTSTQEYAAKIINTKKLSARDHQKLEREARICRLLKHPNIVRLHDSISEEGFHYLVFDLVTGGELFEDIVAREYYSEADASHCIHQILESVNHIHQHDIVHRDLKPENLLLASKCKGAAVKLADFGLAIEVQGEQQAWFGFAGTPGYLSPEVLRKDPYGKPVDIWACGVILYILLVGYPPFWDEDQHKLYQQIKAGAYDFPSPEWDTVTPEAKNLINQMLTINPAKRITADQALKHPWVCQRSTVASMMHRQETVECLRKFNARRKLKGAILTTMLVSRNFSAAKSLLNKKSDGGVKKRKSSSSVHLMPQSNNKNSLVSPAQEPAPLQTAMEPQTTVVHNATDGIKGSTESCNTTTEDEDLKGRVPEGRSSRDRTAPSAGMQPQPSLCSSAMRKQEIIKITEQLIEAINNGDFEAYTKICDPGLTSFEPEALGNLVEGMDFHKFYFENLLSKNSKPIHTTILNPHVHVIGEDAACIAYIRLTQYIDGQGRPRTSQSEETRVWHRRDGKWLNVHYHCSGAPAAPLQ
T5 sequence (P31751 whole entry): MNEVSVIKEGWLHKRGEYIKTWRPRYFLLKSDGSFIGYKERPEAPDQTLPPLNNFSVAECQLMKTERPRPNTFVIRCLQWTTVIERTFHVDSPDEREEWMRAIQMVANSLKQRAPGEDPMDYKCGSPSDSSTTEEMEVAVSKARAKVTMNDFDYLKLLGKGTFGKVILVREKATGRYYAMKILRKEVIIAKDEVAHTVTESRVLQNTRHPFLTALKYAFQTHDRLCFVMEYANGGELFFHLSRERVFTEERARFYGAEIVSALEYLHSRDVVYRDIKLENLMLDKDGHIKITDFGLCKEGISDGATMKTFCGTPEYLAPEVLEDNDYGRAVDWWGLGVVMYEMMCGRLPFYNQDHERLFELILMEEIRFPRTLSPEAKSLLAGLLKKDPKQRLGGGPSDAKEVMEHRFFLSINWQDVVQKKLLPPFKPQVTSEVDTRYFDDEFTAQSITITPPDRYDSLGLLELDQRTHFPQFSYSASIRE
T3 sequence (P16234 whole entry): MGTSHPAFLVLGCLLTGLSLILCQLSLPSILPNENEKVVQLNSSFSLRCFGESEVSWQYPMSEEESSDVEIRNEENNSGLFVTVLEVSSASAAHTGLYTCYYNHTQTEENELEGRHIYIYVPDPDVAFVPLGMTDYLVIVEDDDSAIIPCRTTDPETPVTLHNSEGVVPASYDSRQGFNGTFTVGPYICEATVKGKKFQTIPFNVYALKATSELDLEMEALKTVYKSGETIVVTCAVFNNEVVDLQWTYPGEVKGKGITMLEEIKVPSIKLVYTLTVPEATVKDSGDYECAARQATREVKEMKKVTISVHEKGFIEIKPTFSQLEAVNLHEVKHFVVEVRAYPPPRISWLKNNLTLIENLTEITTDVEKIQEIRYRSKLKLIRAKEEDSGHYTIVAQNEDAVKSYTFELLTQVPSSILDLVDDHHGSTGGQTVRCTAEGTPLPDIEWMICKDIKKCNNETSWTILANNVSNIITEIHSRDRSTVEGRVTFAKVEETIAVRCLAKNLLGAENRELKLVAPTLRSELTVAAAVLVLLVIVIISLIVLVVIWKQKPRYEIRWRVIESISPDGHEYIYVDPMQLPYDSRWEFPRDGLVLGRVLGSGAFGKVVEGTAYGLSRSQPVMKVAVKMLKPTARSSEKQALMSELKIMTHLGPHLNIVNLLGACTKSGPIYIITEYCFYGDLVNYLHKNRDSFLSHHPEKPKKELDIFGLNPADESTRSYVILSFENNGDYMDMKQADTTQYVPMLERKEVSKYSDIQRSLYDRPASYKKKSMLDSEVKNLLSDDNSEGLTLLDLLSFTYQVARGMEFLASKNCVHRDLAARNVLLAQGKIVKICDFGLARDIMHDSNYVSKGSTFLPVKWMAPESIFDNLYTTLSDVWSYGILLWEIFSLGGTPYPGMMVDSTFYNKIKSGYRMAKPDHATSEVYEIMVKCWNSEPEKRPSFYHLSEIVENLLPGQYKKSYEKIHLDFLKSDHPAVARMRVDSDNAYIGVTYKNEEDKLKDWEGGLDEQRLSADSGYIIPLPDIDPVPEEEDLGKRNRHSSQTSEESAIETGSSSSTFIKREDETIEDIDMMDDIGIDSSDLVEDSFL
T1 sequence (Q16513 whole entry): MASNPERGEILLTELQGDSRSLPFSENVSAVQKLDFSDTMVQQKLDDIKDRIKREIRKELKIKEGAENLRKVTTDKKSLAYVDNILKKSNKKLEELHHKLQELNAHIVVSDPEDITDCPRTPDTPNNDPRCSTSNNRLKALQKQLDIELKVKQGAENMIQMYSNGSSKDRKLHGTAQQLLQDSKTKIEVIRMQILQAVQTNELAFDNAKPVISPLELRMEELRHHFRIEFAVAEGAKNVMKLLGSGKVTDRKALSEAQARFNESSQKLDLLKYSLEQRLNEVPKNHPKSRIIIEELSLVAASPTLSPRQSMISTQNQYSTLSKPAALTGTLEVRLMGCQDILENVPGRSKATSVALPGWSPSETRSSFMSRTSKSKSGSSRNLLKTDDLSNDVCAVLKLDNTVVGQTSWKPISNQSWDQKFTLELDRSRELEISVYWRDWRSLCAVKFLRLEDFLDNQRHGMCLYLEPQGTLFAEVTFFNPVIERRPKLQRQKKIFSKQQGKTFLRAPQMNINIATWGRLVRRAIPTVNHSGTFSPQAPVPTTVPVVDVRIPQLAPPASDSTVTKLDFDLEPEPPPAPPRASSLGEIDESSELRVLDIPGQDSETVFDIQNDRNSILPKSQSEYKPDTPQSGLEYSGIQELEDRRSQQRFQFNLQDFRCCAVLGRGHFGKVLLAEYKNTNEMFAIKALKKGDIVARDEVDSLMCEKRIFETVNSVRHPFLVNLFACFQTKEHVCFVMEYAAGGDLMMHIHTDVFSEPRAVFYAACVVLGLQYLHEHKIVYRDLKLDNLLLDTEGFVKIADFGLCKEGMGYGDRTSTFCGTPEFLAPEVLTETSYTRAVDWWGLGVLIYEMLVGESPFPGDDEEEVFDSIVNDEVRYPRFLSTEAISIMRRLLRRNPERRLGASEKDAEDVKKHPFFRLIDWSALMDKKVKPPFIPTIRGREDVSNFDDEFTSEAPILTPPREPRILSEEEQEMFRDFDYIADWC
STK32C(h), sequence (Q86UX6 whole entry): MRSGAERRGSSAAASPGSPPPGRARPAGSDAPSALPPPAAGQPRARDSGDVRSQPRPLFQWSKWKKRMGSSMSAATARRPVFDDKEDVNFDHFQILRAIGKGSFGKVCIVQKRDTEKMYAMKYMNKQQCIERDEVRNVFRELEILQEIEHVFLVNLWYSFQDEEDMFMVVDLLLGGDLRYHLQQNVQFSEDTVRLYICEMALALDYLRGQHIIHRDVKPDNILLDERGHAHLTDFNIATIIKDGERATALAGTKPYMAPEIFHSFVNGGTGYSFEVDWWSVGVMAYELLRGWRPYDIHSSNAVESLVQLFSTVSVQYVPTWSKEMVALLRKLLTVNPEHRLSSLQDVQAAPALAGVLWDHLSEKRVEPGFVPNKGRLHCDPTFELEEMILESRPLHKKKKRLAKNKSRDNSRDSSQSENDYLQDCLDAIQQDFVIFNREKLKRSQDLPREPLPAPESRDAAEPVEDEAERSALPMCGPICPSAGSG

Fc1ccc2ncnc(NCCc3ccc(Cl)cc3)c2c1 [5at, N-[2-(4-Chlorophenyl)Ethyl]-6-Fluoro-4-Quinazolinamine]
remaining activity at 10 µM (PRK2(h); [1]): 96% | remaining activity at 10 µM (CaMKIIγ(h); [1]): 75% | remaining activity at 10 µM (STK32C(h); [1]): 106% | remaining activity at 10 µM (PDGFRα(h); [1]): 95% | remaining activity at 10 µM (PKG1α(h); [1]): 93% | remaining activity at 10 µM (PKBβ(h); [1]): 75%

Fc1ccc(CCNc2ncnc3ccc(F)cc23)cc1 [5as, 6-Fluoro-N-[2-(4-Fluorophenyl)Ethyl]-4-Quinazolinamine]
remaining activity at 10 µM (PRK2(h); [2]): 104% | remaining activity at 10 µM (CaMKIIγ(h); [2]): 74% | remaining activity at 10 µM (STK32C(h); [2]): 95% | remaining activity at 10 µM (PDGFRα(h); [2]): 90% | remaining activity at 10 µM (PKG1α(h); [2]): 96% | remaining activity at 10 µM (PKBβ(h); [2]): 84%

COc1ccc2ncnc(Nc3cccc(F)c3)c2c1 [5ay, N-(3-Fluorophenyl)-6-Methoxy-4-Quinazolinamine]
remaining activity at 10 µM (PRK2(h); [3]): 95% | remaining activity at 10 µM (CaMKIIγ(h); [3]): 41% | remaining activity at 10 µM (STK32C(h); [3]): 102% | remaining activity at 10 µM (PDGFRα(h); [3]): 101% | remaining activity at 10 µM (PKG1α(h); [3]): 95% | remaining activity at 10 µM (PKBβ(h); [3]): 106%

Fc1ccc(CNc2ncnc3ccc(F)cc23)cc1 [5aa, 6-Fluoro-N-(4-fluorobenzyl)-4-Quinazolinamine]
remaining activity at 10 µM (PRK2(h); [4]): 108% | remaining activity at 10 µM (CaMKIIγ(h); [4]): 83% | remaining activity at 10 µM (STK32C(h); [4]): 106% | remaining activity at 10 µM (PDGFRα(h); [4]): 111% | remaining activity at 10 µM (PKG1α(h); [4]): 91% | remaining activity at 10 µM (PKBβ(h); [4]): 106%
